The values that follow come from article PMC10674535, “Development and Evaluation of a Self-Nanoemulsifying Drug Delivery System for Sinapic Acid with Improved Antiviral Efficacy against SARS-CoV-2” (Pharmaceutics, 2023).

In brackets after ≈: the same amount, converted by molar mass. Like-named read-outs stand apart in the source and are kept apart here.

Series [1] concerns SARS-CoV-2 (hCoV-19/Egypt/NRC-3/2020 isolate). Description: microbe, parasite or virus in culture. In kind it is cell-based. Conditions: Severe acute respiratory syndrome coronavirus 2, Vero C1008, 48 h, read-out: IC50, in vitro antiviral activity against SARS-CoV-2.
A short description of series [2]: Equilibrium (saturated) solubility of SA in oils, surfactants and cosurfactants (isothermal method). Format: physicochemical. Conditions: room temperature; for solubility at 3 days: read-out: Saturated solubility of sinapic acid; for Saturated solubility of sinapic acid: 3 days, listed as SA. An excerpt:
The equilibrium solubility of SA was studied in various oils, surfactants, and cosurfactants. Oils of different saturation degrees (medium- or long-chain triglycerides) were utilized to create an SNE to test their solubilization and nano-emulsification ability. The oil with the highest ability to solubilize SA was chosen due to its significant impact on drug solubilization ability and absorption. The tested oils included Labrafil, Capryol-90, Labrafac, olive oil, anise oil, almond oil, soybean oil, and corn oil. The screened surfactants were hydrophilic non-ionic surfactants (Cremophor El, Tween 20, and Tween 80); they have high HLB values and low oral toxicity. Labrasol, Transcutol, PEG 400, and propylene glycol were the screened cosurfactants. An isothermal method previously reported in the literature was utilized for the solubility determination. In brief, 300 mg of SA was added to 1 mL of each component in screw-capped glass vials and mixed using a vortex mixer. The mixtures were then transferred to a thermodynamic water bath shaker (JULABO™, Julabo Labortechnik GMBH, Seelbach, Germany) for continuous shaking at a speed of 100 rpm at room temperature for three days, followed by centrifugation at 4000 rpm for 25 min. SA concentration was measured spectrophotometrically at 322 nm after the supernatant was diluted with methanol using a magnetic stirrer at 500 rpm for 2 min at room temperature. The results of this study provide important insights into the solubility of SA in various oils, surfactants, and cosurfactants, which is crucial for the formulation of SA in a self-nanoemulsifying dosage form.

The nature of another series: in vitro. To be noted: African green monkey.
Series [3] has as its target T1, 3CL Protease, tagged (SARS-CoV-2) (Mpro) (Severe acute respiratory syndrome coronavirus 2, UniProt P0DTD1).
T1 construct: 3CL Protease, tagged (SARS-CoV-2) Assay Kit; unspecified tag (printed only as 'tagged'); purchased BPS Bioscience, Inc. 79955-1
Description: Mpro enzyme assay (3CL Protease FRET assay kit). In kind it is biochemical. Conditions: excitation 360 nm, emission 460 nm, read-out: IC50, in vitro Mpro inhibitory activity.
Description: The in vitro FRET assay was monitored at an emission wavelength of 460 nm with an excitation at 360 nm using a Flx800 fluorescence spectrophotometer (BioTek Instruments, Winooski, VT, USA).

By IC50 is commonly meant the midpoint of a concentration-inhibition curve. For orientation: solubility means the concentration that dissolves in the medium under given conditions.

Consider `CCC(CC)COC(=O)[C@H](C)N[P@](=O)(OC[C@H]1O[C@@](C#N)(c2ccc3c(N)ncnn23)[C@H](O)[C@@H]1O)Oc1ccccc1` [remdesivir, reference compound], for which, in series [1] (Vero E6 cells, MOI 0.5, viral RNA by real-time PCR after 2 days, n = 3), the IC50 is 0.036 ± 0.002 µg/mL (≈ 5.97e-05 mM).

In the case of `COc1cc(/C=C/C(=O)O)cc(OC)c1O` [Sinapic acid], the concentration for half-maximal inhibition (IC50) worked out at 2.53 ± 0.065 µg/mL (≈ 0.0113 mM) in series [1] and 6.74 ± 0.95 µM in series [3]. Also, the solubility at 3 days is 22.5 mg/mL (≈ 100 mM) in series [2] (Capryol 90 (oil), oil or lipid, thermodynamic from solid, in Capryol 90 (oil)); 138 mg/mL (≈ 617 mM) in series [2] (Cremophore El (surfactant), thermodynamic from solid, in Cremophore El (surfactant)); 14.3 mg/mL (≈ 63.9 mM) in series [2] (Labrafac (oil), oil or lipid, thermodynamic from solid, in Labrafac (oil)); 30 mg/mL (≈ 134 mM) in series [2] (Labrafil (oil), in Labrafil (oil)); 30 mg/mL (≈ 134 mM) in series [2] (Labrafil (oil), oil or lipid, thermodynamic from solid, in Labrafil (oil)); 60.4 mg/mL (≈ 269 mM) in series [2] (Labrasol, thermodynamic from solid, in Labrasol). For the same compound, the solubility at 3 days was 102 mg/mL (≈ 455 mM) in series [2] (PEG 400 (co-surfactant), organic solvent or mixture, thermodynamic from solid, in PEG 400 (co-surfactant)); 193 mg/mL (≈ 860 mM) in series [2] (Transcutol (co-surfactant), organic solvent or mixture, thermodynamic from solid, in Transcutol (co-surfactant)); 123 mg/mL (≈ 550 mM) in series [2] (Tween 20 (surfactant), thermodynamic from solid, in Tween 20 (surfactant)); 78.8 mg/mL (≈ 352 mM) in series [2] (Tween 80 (surfactant), thermodynamic from solid, in Tween 80 (surfactant)); 1.71 mg/mL (≈ 7.63 mM) in series [2] (almond oil, oil or lipid, thermodynamic from solid, in almond oil); 5.02 mg/mL (≈ 22.4 mM) in series [2] (anise oil, oil or lipid, thermodynamic from solid, in anise oil). The solubility at 3 days turned out to be 0.81 mg/mL (≈ 3.61 mM) in series [2] (corn oil, oil or lipid, thermodynamic from solid, in corn oil); 7.11 mg/mL (≈ 31.7 mM) in series [2] (olive oil, oil or lipid, thermodynamic from solid, in olive oil); 58.4 mg/mL (≈ 260 mM) in series [2] (propylene glycol (co-surfactant), organic solvent or mixture, thermodynamic from solid, in propylene glycol (co-surfactant)); 1.25 mg/mL (≈ 5.58 mM) in series [2] (soybean oil, oil or lipid, thermodynamic from solid, in soybean oil). In addition, the “Saturated solubility of sinapic acid” value is 138 mg/mL in series [2] (in Cremophore El (surfactant)); 60 mg/mL in series [2] (in Labrasol); 102 mg/mL in series [2] (in PEG 400 (co-surfactant)); 192 mg/mL in series [2] (in Transcutol (co-surfactant)); 78 mg/mL in series [2] (in Tween 80 (surfactant)); 58 mg/mL in series [2] (in propylene glycol (co-surfactant)). In the series “in vitro”, the CC50 turned out to be 196 ± 15.1 µg/mL (≈ 0.875 mM).
